We go through 3 molecules from ChEMBL document CHEMBL6182948 (J Med Chem, 2025).

Data set [1] in a line: Metabolic stability in liver microsomes (unknown origin) assessed as compound remaining at 0.5 mg/ml measured after 15 mins in presence of NADPH regenerating system by LC-MS/MS analysis relative to control. The class given is ADME, Microsome. Particulars: read-out: Stability. For orientation: Liver microsomes are a subcellular fraction often used to study metabolism.
The target in data set [2] is Cytochrome P450 3A4 (Homo sapiens, UniProt P08684). Description: Inhibition of CYP3A4 in human liver microsome pre-incubated with compound for 5 mins followed NADPH addition and measured after 5 mins by LC-MS/MS analysis. The format is ADME, microsomes.
Data set [3] is described as follows: Stability in human plasma assessed as compound remaining at 100 uM measured immediately by LC-MS/MS analysis. The class given is ADME, cell-free. As to conditions: read-out: Stability.
Data set [4] can be described thus: Stability in human plasma assessed as compound remaining at 100 uM measured after 5 mins by LC-MS/MS analysis. The class given is ADME, cell-free. As to conditions: read-out: Stability.
Data set [5] addresses T1, Cytochrome P450 1A1 (Homo sapiens, UniProt P04798).
T1 sequence (P04798 whole entry): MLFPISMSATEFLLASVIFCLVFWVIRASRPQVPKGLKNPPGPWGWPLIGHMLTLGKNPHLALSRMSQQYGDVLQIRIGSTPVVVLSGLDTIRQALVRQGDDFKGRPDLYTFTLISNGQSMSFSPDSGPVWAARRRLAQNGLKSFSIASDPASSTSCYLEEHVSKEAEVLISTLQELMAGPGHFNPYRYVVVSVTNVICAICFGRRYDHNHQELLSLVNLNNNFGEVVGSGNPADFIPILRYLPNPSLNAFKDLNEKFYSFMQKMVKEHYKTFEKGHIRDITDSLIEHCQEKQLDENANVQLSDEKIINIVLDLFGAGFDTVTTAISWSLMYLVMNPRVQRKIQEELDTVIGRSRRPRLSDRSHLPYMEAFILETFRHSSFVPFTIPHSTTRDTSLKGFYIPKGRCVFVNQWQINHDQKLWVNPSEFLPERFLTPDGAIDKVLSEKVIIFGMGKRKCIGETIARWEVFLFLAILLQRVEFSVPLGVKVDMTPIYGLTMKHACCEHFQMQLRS
Description: Inhibition of human recombinant CYP1A1 using 7-ethoxyresorufin as substrate incubated under dark condition for 15 mins in presence of NADPH by EROD fluorescence assay. The format is ADME.

Data set [6] concerns the target CYP3A4 (Homo sapiens, UniProt P08684). Description: Inhibition of CYP3A4 in human liver microsome at 10 uM pre-incubated with compound for 5 mins followed NADPH addition and measured after 5 mins by LC-MS/MS analysis relative to control. The class given is ADME. As to conditions: liver microsomes, time 10 min.
The species named for data set [7] is Homo sapiens. Description: Selectivity index, ratio of IC50 for human recombinant CYP1A1 to IC50 for human recombinant CYP1B1 using 7-ethoxyresorufin as substrate.
Data set [8] is described as follows: Stability in human plasma assessed as compound remaining at 100 uM measured after 60 mins by LC-MS/MS analysis. The format is ADME, cell-free. As to conditions: read-out: Stability.
Data set [9] can be described thus: Stability in human plasma assessed as compound remaining at 100 uM measured after 15 mins by LC-MS/MS analysis. The class given is ADME, cell-free. Particulars: read-out: Stability.
For data set [10], the system named is A549. Description: Antiproliferative against human A549 cells assessed as inhibition of cell viability incubated for 48 hrs by CCK-8 assay. The format is functional, cell-based. Particulars: A549, 48 h. On the technique in general: Tetrazolium assays rely on reduction of a dye to a coloured formazan, in cell work by metabolically active cells.
Data set [11] addresses CYP2C19 (Homo sapiens, UniProt P33261). Description: Inhibition of CYP2C19 in human liver microsome at 10 uM pre-incubated with compound for 5 mins followed NADPH addition and measured after 30 mins by LC-MS/MS analysis relative to control. The class given is ADME. Particulars: liver microsomes, time 35 min.
The target of data set [12] is Cytochrome P450 2C9 (Homo sapiens, UniProt P11712). Description: Inhibition of CYP2C9 in human liver microsome pre-incubated with compound for 5 mins followed NADPH addition and measured after 10 mins by LC-MS/MS analysis. The format is ADME, microsomes.
Data set [13] can be described thus: Cmax in male Sprague-Dawley rat at 10 mg/kg, po measured up to 24 hrs by LC-MS/MS analysis. The format is ADME, organism-based. As to conditions: in vivo.
Data set [14] is described as follows: Cmax in male Sprague-Dawley rat at 2 mg/kg, iv measured up to 24 hrs by LC-MS/MS analysis. The format is ADME, organism-based. Particulars: in vivo.
Data set [15] has as its system A549/TR. Description: Synergistic antiproliferative activity against human A549/Taxol cells assessed as combination index at 20 uM in presence of 0.05 uM paclitaxel by Chou-Talalay method. The format is functional.
The test system of data set [16] is A549/TR. Description: Synergistic antiproliferative activity against human A549/Taxol cells assessed as combination index at 2.5 uM in presence of 0.1 uM paclitaxel by Chou-Talalay method. The format is functional.
Data set [17] has as its target T2, Cytochrome P450 2C8 (Homo sapiens, UniProt P10632).
T2 sequence (P10632 whole entry): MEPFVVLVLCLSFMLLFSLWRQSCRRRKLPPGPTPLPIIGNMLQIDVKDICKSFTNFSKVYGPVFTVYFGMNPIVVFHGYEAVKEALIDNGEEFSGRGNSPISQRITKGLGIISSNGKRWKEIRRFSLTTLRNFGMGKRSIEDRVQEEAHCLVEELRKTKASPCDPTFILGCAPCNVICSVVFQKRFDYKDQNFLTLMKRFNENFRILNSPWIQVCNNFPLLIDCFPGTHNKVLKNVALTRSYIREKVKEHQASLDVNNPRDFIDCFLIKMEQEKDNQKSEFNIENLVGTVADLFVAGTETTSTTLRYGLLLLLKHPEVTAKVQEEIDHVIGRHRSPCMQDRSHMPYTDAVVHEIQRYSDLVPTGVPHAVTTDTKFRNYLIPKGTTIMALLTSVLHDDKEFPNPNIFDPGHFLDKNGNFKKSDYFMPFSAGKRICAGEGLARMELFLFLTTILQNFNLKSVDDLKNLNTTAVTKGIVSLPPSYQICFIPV
Description: Inhibition of CYP2C8 in human liver microsome pre-incubated with compound for 5 mins followed NADPH addition and measured after 5 mins by LC-MS/MS analysis. The class given is ADME, microsomes.

Data set [18] deals with A549/TR. Description: Synergistic antiproliferative activity against human A549/Taxol cells assessed as combination index at 5 uM in presence of 0.5 uM paclitaxel by Chou-Talalay method. The class given is functional.
The target in data set [19] is Cytochrome P450 2D6 (Homo sapiens, UniProt P10635). Description: Inhibition of CYP2D6 in human liver microsome pre-incubated with compound for 5 mins followed NADPH addition and measured after 10 mins by LC-MS/MS analysis. The format is ADME, microsomes.
For data set [20], the system named is A549/TR. Description: Synergistic antiproliferative activity against human A549/Taxol cells assessed as combination index at 20 uM in presence of 0.1 uM paclitaxel by Chou-Talalay method. The format is functional.
In data set [21] the target is Cytochrome P450 2C19 (Homo sapiens, UniProt P33261). Description: Inhibition of CYP2C19 in human liver microsome pre-incubated with compound for 5 mins followed NADPH addition and measured after 30 mins by LC-MS/MS analysis. The class given is ADME, microsomes.
Data set [22] deals with A549/TR. Description: Synergistic antiproliferative activity against human A549/Taxol cells assessed as combination index at 2.5 uM in presence of 0.025 uM paclitaxel by Chou-Talalay method. The format is functional.
Data set [23] in a line: Metabolic stability in liver microsome (unknown origin) assessed as intrinsic clearance at 0.5 mg/mL measured up to 60 mins by LC-MS/MS analysis. The class given is ADME. As to conditions: liver microsomes, read-out: CLH.
Data set [24] is described as follows: AUC (0 to infinity) in male Sprague-Dawley rat at 2 mg/kg, iv measured up to 24 hrs by LC-MS/MS analysis. The class given is ADME, organism-based. Particulars: in vivo.
For data set [25], the system named is A549/TR. Description: Synergistic antiproliferative activity against human A549/Taxol cells assessed as combination index at 10 uM in presence of 0.025 uM paclitaxel by Chou-Talalay method. The class given is functional.

pIC50: −log10 of the molar value.

Chain of CYP2C19 (P33261 whole entry): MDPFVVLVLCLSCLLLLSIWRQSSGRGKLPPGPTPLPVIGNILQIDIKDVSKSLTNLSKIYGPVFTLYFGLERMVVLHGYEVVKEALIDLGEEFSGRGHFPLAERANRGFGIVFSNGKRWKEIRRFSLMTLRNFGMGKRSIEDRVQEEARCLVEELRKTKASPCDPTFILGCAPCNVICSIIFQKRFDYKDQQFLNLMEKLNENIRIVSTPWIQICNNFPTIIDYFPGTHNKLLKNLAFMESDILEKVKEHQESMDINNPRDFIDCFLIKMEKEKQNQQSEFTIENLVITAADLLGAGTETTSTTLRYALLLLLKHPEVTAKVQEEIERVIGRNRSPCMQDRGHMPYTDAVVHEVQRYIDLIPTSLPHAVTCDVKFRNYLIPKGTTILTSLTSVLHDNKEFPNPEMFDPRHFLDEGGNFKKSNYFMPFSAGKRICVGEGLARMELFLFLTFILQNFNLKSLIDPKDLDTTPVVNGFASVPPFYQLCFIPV
Chain of CYP3A4 (P08684 whole entry): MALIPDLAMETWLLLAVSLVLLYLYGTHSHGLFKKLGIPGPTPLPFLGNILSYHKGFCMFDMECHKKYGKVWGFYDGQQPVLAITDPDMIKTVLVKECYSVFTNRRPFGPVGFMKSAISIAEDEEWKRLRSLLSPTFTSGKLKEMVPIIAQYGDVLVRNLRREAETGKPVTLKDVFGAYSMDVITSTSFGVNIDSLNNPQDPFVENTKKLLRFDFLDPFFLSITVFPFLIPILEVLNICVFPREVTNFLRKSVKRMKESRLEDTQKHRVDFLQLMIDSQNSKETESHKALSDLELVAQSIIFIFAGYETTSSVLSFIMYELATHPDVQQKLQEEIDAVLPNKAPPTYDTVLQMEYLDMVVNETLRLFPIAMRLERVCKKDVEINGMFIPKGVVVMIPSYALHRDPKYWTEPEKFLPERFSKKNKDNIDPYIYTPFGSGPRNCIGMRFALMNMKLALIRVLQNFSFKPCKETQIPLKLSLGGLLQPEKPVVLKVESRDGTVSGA
Chain of Cytochrome P450 3A4 (P08684 whole entry): as above
Chain of Cytochrome P450 2D6 (P10635 whole entry): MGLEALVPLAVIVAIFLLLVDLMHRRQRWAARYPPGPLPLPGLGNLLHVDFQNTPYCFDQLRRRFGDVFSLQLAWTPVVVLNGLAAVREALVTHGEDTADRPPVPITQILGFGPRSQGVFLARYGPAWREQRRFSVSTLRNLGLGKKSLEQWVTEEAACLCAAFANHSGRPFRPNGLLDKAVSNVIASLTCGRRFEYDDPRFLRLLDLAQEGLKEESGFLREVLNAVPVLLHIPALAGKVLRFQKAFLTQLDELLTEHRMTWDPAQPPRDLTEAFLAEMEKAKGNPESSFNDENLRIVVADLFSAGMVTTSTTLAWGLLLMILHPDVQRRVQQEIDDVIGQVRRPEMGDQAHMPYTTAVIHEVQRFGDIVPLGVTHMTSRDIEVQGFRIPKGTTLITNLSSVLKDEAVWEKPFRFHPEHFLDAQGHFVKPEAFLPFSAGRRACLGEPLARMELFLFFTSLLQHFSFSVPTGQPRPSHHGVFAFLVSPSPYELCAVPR
Chain of Cytochrome P450 2C19 (P33261 whole entry): as the sequence (P33261 whole entry) above
Chain of Cytochrome P450 2C9 (P11712 whole entry): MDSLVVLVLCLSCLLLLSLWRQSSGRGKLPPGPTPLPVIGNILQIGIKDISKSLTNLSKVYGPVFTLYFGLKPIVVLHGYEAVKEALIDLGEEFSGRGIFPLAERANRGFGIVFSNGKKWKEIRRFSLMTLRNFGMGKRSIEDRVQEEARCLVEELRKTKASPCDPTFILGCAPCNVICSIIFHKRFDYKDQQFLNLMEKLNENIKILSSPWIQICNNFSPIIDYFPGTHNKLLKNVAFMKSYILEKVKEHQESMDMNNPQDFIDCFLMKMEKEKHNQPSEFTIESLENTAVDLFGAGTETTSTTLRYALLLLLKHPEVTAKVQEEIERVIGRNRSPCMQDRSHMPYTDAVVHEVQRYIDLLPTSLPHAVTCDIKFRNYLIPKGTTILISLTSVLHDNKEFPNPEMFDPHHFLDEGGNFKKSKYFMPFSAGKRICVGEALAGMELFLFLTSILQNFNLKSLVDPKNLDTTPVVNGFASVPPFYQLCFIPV

For orientation: pIC50 means the negative decadic logarithm of the IC50, by convention in mol/L. By inhibition is commonly meant how much of the control response was suppressed. For `N#Cc1ccc(-c2csc(C(=O)Nc3cc(Cl)cc(Cl)c3)n2)cc1`, the remaining at 0.25 h in data set [1] worked out at 101%. The results for the pIC50 in data set [2], in data set [5] and in [10] were 5.81, below 4.00 and below 4.70, respectively. Further, the remaining at 0 min, 100 µM in data set [3] was found to be 100%. The remaining at 5 min, 100 µM in data set [4] amounted to 106%. The inhibition at 5 min, 10 µM in data set [6] is 86.6%. Further, the Ratio IC50 in data set [7] is above 56400. In addition, the remaining at 1 h, 100 µM in [8] stood at 114%. For the same molecule, in data set [9], the remaining at 0.25 h, 100 µM is 102%. Further, the inhibition at 0.5 h, 10 µM in data set [11] came out at 1.45%.
By Cmax is commonly meant the maximum level reached in the sampled fluid or tissue. Broadly, the AUC(0-inf) is the area under the concentration-time curve extrapolated to infinity. A high value points to high exposure. Take `O=C(Nc1cc(Cl)cc(Cl)c1)c1nc(-c2cccc(Cl)c2)cs1`: the remaining at 0.25 h in [1] is 102%. Besides, the pIC50 in [12] was below 5.00; in [2], below 5.00; in [5] it was below 4.00; in [17], below 5.00; in data set [19], below 5.00; in data set [21], below 5.00. The pIC50 in data set [10] was 5.12. Further, the figures for the Cmax in data set [13] and in [14] were 81 ng/mL and 4750 ng/mL, respectively. The remaining at 0 min, 100 µM in data set [3] was found to be 100%. In addition, the remaining at 5 min, 100 µM in data set [4] came out at 87.1%. Besides, the CI in data set [15] is recorded as 0.38; in [16], 0.09; in [18], 0.48; in [20] it was 0.63; in [22], 0.75; in [25], 0.86. Moreover, the inhibition at 5 min, 10 µM in data set [6] was 0.94%. Further, the Ratio IC50 in data set [7] is above 67500. Besides, the remaining at 1 h, 100 µM in [8] stood at 96.1%. Moreover, the remaining at 0.25 h, 100 µM in data set [9] worked out at 104%. In addition, the inhibition at 0.5 h, 10 µM in data set [11] came out at 7.73%. In data set [23], the CLint scaled was determined as 1.1 mL/min/kg. Also, the AUC(0-inf) in data set [24] came to 2300 ng·h/mL.
Consider `N#Cc1ccc(-c2csc(C(=O)Nc3ccc(C(F)(F)F)cc3)n2)cc1`, for which the remaining at 0.25 h in data set [1] was determined as 80.4%. In addition, the negative-log IC50 (pIC50) in data set [12] is below 5.00; in [2] it was 5.53; in [5], 7.11; in [17], below 5.00; in [19], below 5.00; in data set [21], 5.19. Besides, in data set [10], the pIC50 was below 4.70. For the same molecule, the remaining at 0 min, 100 µM in data set [3] came to 100%. In addition, in data set [4], the remaining at 5 min, 100 µM stood at 99%. The inhibition at 5 min, 10 µM in data set [6] worked out at 77.1%. In addition, the Ratio IC50 in data set [7] was 1550. Besides, the remaining at 1 h, 100 µM in data set [8] was 100%. Moreover, the remaining at 0.25 h, 100 µM in data set [9] worked out at 94.2%. Moreover, the inhibition at 0.5 h, 10 µM in data set [11] was 60.8%. The CLint scaled in [23] came out at 17.8 mL/min/kg.
